These results are taken from patent publication US20070073056A1, “4-Substituted Pyrazoline Compounds, their Preparation and Use as Medicaments” (LABORATORIOS DEL DR. ESTEVE, S.A., priority 2005, published 2007).

Assay [1] concerns the target recombinant human cannabinoid 1 receptor (CB1) (Homo sapiens, UniProt P21554). The experiment in a line: [35S]GTPγS binding assay, antagonism to CB1-receptor (Pharmacological methods, part V). It is filed as biochemical. The note with it: compound at 1 μM against agonist WIN 55,212-2; 100% = effect of Rimonabant (1 μM); CHO membranes. As for the experimental part:
V. In vitro Determination of Antagonism to CB1-Receptor
Chinese hamster ovary (CHO) cells stably expressing recombinant human cannabinoid 1 receptor (CB1) were cultured in nutrient mixture Ham's F 12 supplemented with 10% heat-inactivated fetal bovine serum, 2 mM L-glutamine, 50 U/ml penicillin, 50 U/ml streptomycin and 0.5 mg/ml geneticin. In order to obtain cells, culture flasks were washed twice with phosphate buffered saline and scraped. Then, cells were collected by centrifugation (200×g, 10 min) and stored dry at −80° C. Cells were homogenized in ice-cold 20 mM HE PES, 10 mM EDTA (pH 7.5) and centrifuged at 40,000×g for 15 min at 4° C. The pellet was resuspended in 20 mM HEPES, 0.1 mM EDTA (pH 7.5) and centrifuged for 15 min at 4° C. The final pellet was resuspended in 20 mM HEPES, 0.1 mM EDTA (pH 7.5), and divided in aliquots and stored at −80° C. until use.
[^35S]GTPγS Binding Assay:
The reaction was performed in 96-well plates. […] The incubation was terminated by rapid filtration through Millipore Multiscreen glass fiber FB, and rinsed two-times with ice-cold assay buffer. Filter plates were dried and 30 μl of scintillation liquid was added. Radioactivity was determined using Wallac Microbeta Trilux. Each experiment was performed at least in duplicate.
The average of basal [35S]GTPγS binding was subtracted from all binding data.
The antagonism of the pyrazoline compounds of general formula I to the CB1-receptor was determined according to the method described in Pharmacological methods, part V (table 2).
(In general: GTPγS resists hydrolysis and so accumulates on activated G proteins.)

For a further assay, the target named is CB1-receptor (UniProt P20272). As to the kind of experiment: binding of the pyrazoline compounds to CB1-receptors (Pharmacological Methods, Part I). On the set-up: IC50; species or system human or rat. The note with it: radioligand [3H]-CP55940, read-out: IC50. In a few lines: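 Rat cerebellum membranes (male Wistar), 100 μg protein, competed against 1 nM [3H]-CP 55,940 in 50 mM Tris-HCl, 5 mM MgCl2, 1 mM EDTA, 0.5% BSA, pH 7.4; 1 h at 30 °C. Non-specific binding with 10 μM HU-210; filtration and scintillation counting, triplicates, non-linear regression.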

What is called IC50 is the concentration needed to halve the response being measured.

recombinant human cannabinoid 1 receptor (CB1), sequence (P21554 whole entry): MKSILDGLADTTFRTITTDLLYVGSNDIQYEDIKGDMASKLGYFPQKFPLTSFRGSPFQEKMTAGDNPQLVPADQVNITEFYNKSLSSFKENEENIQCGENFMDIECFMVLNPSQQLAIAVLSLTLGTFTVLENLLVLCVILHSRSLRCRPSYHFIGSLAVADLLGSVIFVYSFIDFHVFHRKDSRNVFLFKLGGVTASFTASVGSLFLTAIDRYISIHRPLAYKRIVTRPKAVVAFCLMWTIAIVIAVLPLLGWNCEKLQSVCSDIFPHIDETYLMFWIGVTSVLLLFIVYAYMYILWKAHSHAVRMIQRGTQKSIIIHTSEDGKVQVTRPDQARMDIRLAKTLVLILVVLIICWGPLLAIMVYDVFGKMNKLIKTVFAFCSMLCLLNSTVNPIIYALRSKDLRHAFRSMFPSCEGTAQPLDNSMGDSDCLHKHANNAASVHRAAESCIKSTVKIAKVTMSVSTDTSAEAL

Take `C[C@@H]1C(C(=O)NN2CCCCC2)=NN(c2ccc(Cl)cc2Cl)[C@@H]1c1ccccc1` (relative stereo) [Example 375, cis-1-(2,4-dichlorophenyl)-4-methyl-5-phenyl-N-(piperidin-1-yl)-4,5-dihydro-1H-pyrazole-3-carboxamide]: in assay [1], the Antagonism was 58%. The half-inhibitory concentration (IC50) on CB1-receptor turned out to be 140 nM.
